Test results published in PubChem BioAssay (NCI).
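48-hour exposure; five concentrations; linearly interpolated endpoints. TGI: concentration producing complete growth inhibition.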

What was measured:
Assay in all cases: NCI tumour cell line growth inhibition, 48 h
[1] = test system: OVCAR-4 ovarian
[2] = test system: SK-OV-3 ovarian
[3] = test system: SW-620 colon
[4] = test system: MOLT-4 leukemia
[5] = test system: NCI-H23 lung
[6] = test system: NCI-H522 lung
[7] = test system: 786-0 renal
[8] = test system: MDA-MB-435
[9] = test system: SK-MEL-2 melanoma
[10] = test system: SK-MEL-28 melanoma
[11] = test system: HOP-92 NSCLC
[12] = test system: MALME-3M melanoma
[13] = test system: SN12C renal
[14] = test system: MCF7 breast
[15] = test system: TK-10 renal
[16] = test system: MDA-N
[17] = test system: UACC-62 melanoma
[18] = test system: HL-60(TB) leukemia
[19] = test system: LOX IMVI melanoma
[20] = test system: U251 CNS

SMILES	TGI [1] [µM]	TGI [2] [µM]	TGI [3] [µM]	TGI [4] [µM]	TGI [5] [µM]	TGI [6] [µM]	TGI [7] [µM]	TGI [8] [µM]	TGI [9] [µM]	TGI [10] [µM]	TGI [11] [µM]	TGI [12] [µM]	TGI [13] [µM]	TGI [14] [µM]	TGI [15] [µM]	TGI [16] [µM]	TGI [17] [µM]	TGI [18] [µM]	TGI [19] [µM]	TGI [20] [µM]
O=C1c2ccccc2-c2nc(-c3cccs3)cc3c2c1nc1ccccc13	> 100	> 100	31	> 100	38.8	83.5	> 100	4.51	32	36.8	> 100	23.1	> 100	29.2	> 100	20.4	19.3	26.5	35.9	> 100
CC[C@]1(Cc2ccc(OC)c(OC)c2)C=[N+]([O-])O[C@H](OC2CCCCC2c2ccccc2)[C@@H]1OC(C)=O (some centres not stated)	> 100	> 100	> 100	63	> 100	> 100	> 100	> 100	> 100	> 100	> 100	> 100	> 100	> 100	> 100	> 100	> 100	40.9	> 100	> 100
C[C@]12CCC(=O)C=C1CC[C@@H]1[C@@H]2CC[C@]2(C)C(=O)/C(=C/c3ccncc3)C[C@@H]12	55.1	56.7	> 100	64.9	56.2	33.8	31.3	44.9	28.9	45	42.8	33.8	39.4	24.1	38.5	54.3	25.6	31.8	30.8	25.7
CCCCCCCCCCCCCCCCOP(=O)(O)OP(=O)(O)OCC1OC(n2cnc3c(N)ncnc32)C(O)C1O (configuration not stated)	> 100	> 100	> 100	> 100	> 100	92.8	> 100	> 100	> 100	64	36.7	> 100	> 100	> 100	> 100	> 100	> 100	> 100	> 100	> 100
COc1cc2c(NCCN(C)C)nc3c4cc5c(cc4ccc3c2cc1OC)OCO5	7.91	8.65	7.22	5.3	6.32	8.02	6.15	6.79	9.94	9.16	8.77	7.78	8.17	6.07	5.88	6.99	8.41	9.52	–	7.83
CC(=O)OC(=C(C#N)C#N)c1nccnc1C(=O)O	> 100	> 100	> 100	> 100	> 100	> 100	> 100	> 100	> 100	> 100	> 100	> 100	> 100	> 100	–	> 100	> 100	> 100	> 100	> 100
c1cc2c(cc1NC1=NCCO1)CCCC2	71.2	27.1	47.3	9.67	16	18	16.7	4.1	11.4	27.2	19.3	21.9	36.6	41.5	52.5	3.18	16.5	7.5	11.1	24.8
Cc1c2ccccc2c(CSC(=N)N)c2ccccc12	0.514	2.67	0.947	0.127	0.272	0.196	0.745	0.44	0.375	0.809	1.43	0.356	0.903	0.518	0.667	0.457	0.408	0.343	1.06	0.818
C=CC(C)CCC(C/C=C(\C)CCCC(C)C)C(=C)CCCC(C)C (configuration not stated)	> 100	> 100	> 100	> 100	> 100	> 100	> 100	> 100	> 100	> 100	> 100	> 100	> 100	> 100	> 100	> 100	> 100	> 100	> 100	> 100
COc1cc(/C=C2/CCCc3ccccc3C2=O)cc(OC)c1OC	> 100	> 68.1	> 100	> 35	> 87	41	> 62	> 70.6	> 55	> 100	> 82.2	29.5	> 51.4	> 63.9	> 100	> 43.8	> 67.4	> 100	> 77	> 88.4
CSc1ccc(/C=C/C(=O)c2nc3ccccc3[nH]2)cc1	76.9	> 100	50.3	18.6	89.5	33.5	43.6	35.8	37.7	> 100	> 100	> 100	> 100	8.97	31.5	> 100	36.2	43.1	45.9	–
